This note sets out measurements from patent US20130210887A1, “DENDRIMERS AS NON-VIRAL VEHICLES FOR GENE THERAPY” (UNIVERSIDAD DE CASTILLA LA MANCHA, priority 2010, published 2013).

The test has as its system siRNA. Nature of the test: Gel shift (electrophoretic shift in agarose gel) of siRNA by coupling to the dendrimer. It counts as binding. Particulars: 2 μM siRNA; 30 min incubation at ambient temperature; 1% agarose gel, 15 min at 60V. From the text:
FIG. 1, relates to the electrophoretic shift analysis of siRNA by the coupling to the compound of general formula (I). The numbers in (A) correspond to different N/P ratios (nitrogenated amines in compound of general formula (0/phosphates in siRNA): (1) 1:0 (siRNA alone), (2) 6:1, (3) 12:1, (4) 24:1, (5) 48:1, (6) 96:1, (7) 192:1 and (8) 384:1. The densitometric analysis of the results of the gel shift experiment are shown in (B).
The compound complexes of general formula (I)-siRNA were formed by mixing equal quantities of volume of the solution that contained compound of general formula (I) and of that containing the siRNA (Org Biomol Chem. 2007. 5: 1886-1893; Pharm Res. 2009. 26: 1181-1191), and incubating the mixture under stirring during 30 minutes at ambient temperature. Both molecules were dissolved in DEPC water (free from RNAses).
The shift in agarose gel was used to ascertain the N/P ratio (nitrogenated amines in compound of general formula (I)/phosphates in siRNA) adapted to obtain the greatest efficacy of bonding possible between both molecules (Mol Biol Rep. 2009. 36: 1083-1093; Am J Med Genet B Neuropsychiatr Genet. 2008. 147B: 769-777). The mixing of different concentrations of compound of general formula (I) and of 250 ng of siRNA was tested. […] The gels were photographed and the bands were quantified with a suitable image analysis system (Quantity One). […]
(Mobility shift assays separate free from complexed probe on a gel.)

Turning to `NCCNC(=O)CCN(CCC(=O)NCCN)CCN(CCC(=O)NCCN)Cc1ccc(/C=C/c2cc(/C=C/c3ccc(CN(CCC(=O)NCCN)CCN(CCC(=O)NCCN)CCC(=O)NCCN)cc3)cc(/C=C/c3ccc(CN(CCC(=O)NCCN)CCN(CCC(=O)NCCN)CCC(=O)NCCN)cc3)c2)cc1` [compound of general formula (I)], the “concentration of compound of general formula (I) at which all the siRNA is fixed (P/N ratio of 12:1)” value came to 22 µM.
